Measured values: patent US10259792B2, “Crystal of uracil compound” (priority 2015, dated 2019)

Tests used:
[1] = Blood concentration measurement test (oral administration to mice); assay type: in vivo; settings: 0.5% HPMC suspension, 50 mg/10 mL/kg, fed Balb/cA mice, compound (1) in plasma by LC-MS/MS
Procedure: A 0.5% HPMC dosing suspension (50 mg/10 mL/kg) of each of crystal I and crystal II was prepared. These suspensions were orally administered to mice (Balb/cA), which had been reared under feeding conditions, in a volume of 10 mL per kg body weight using an oral gavage tube. After administration, mice were returned to the mouse cage, and their conditions were checked. In the cage, water and feed were available ad libitum. At 0.5, 1, 2, 4, 6, and 8 hours after administration, mice were anesthetized with isoflurane, and 60 μL of blood was collected from the orbital venous plexus using a capillary blood collecting tube. The collected blood was ice-cooled, and centrifuged to separate plasma. The mice after blood collection were returned to the animal rearing cage, and their conditions after recovering from anesthesia were checked. After the final blood collection, the depth of isoflurane anesthesia was checked, and then the mice were euthanized by cervical dislocation.
From the concentrations of compound (1) in plasma measured by MRM method using LC-MS/MS, AUC0-24 hr was calculated by log-linear trapezoidal method using Phoenix WinNonlin (v6.3.0), software manufactured by Pharsight.

[2] = Solid stability test (under light exposure); assay type: physicochemical; settings: for Change of chemical purity / Change of crystal form by powder X-ray crystallography: 1 month under light exposure; for Chemical purity, Initial value / Chemical purity, One month later: HPLC; for Chemical purity, Initial value: before storage; for Chemical purity, One month later: stored 1 month under light exposure in clear glass bottle
Procedure: The solid stabilities of crystal I and crystal II obtained in the Examples, when stored for 1 month under light exposure, were measured under the following conditions.
Storage condition: Sample was placed in a transparent glass bottle, then the lid was placed, and the grove between the lid and the bottle was sealed by the grafting tape.
Measurement point: 1 Month
Stored amount: About 30 mg
Storage container: Clear glass bottle
Chemical purity of compound (1) in the sample solution was measured by HPLC analysis. The apparatuses, including the apparatus for data processing, were handled according to the processes and procedures instructed for the apparatuses. (Apparatus: Shimadzu Corporation LC-20AB)
Column: L-column 2 ODS manufactured by Chemicals Evaluation and Research Institute, 4.6×150 mm, 5 μm
Column temperature: 50° C.
Column flow rate: 1.0 mL/min
Mobile phase: A; Water, B; Acetonitrile
Sample concentration: 1.0 mg/mL

| AUC(0-t) ([1]; Balb/cA, mouse, plasma, po, 50 mg/kg, read-out: AUC0-24 hr) [µM·h] | Change of chemical purity [2] | Change of crystal form by powder X-ray crystallography [2] | Chemical purity, Initial value [2] [%] | Chemical purity, One month later [2] [%] | AUC0-24 hr [1] [µM·h] | SMILES |
| --- | --- | --- | --- | --- | --- | --- |
| 122 | did not change | no change of crystal form | 97.8 | 97.4 | – | C[C@@H](NS(=O)(=O)CCCOCn1ccc(=O)[nH]c1=O)c1cccc(OC2CCCC2)c1 [Crystal I, (R)—N-(1-(3-(cyclopentyloxy)phenyl)ethyl)-3-((2,4-dioxo-3,4-dihydropyrimidin-1(2H)-yl)methoxy)propane-1-sulfonamide] |
| – | did not change | no change of crystal form | 99.0 | 99.1 | 144.51 | C[C@@H](NS(=O)(=O)CCCOCn1ccc(=O)[nH]c1=O)c1cccc(OC2CCCC2)c1 [Crystal II, (R)—N-(1-(3-(cyclopentyloxy)phenyl)ethyl)-3-((2,4-dioxo-3,4-dihydropyrimidin-1(2H)-yl)methoxy)propane-1-sulfonamide] |
